# Measured values: patent US9388147B2 (Receptos, Inc., priority 2009, dated 2016)
# Counter-ions that a name gives are not always drawn.
# Tests used:
# [1] = Evaluation of therapeutic index in rats: 5 or 14 day toxicology study, lung to body weight ratio; assay type: in vivo, Sprague-Dawley rat; conditions: for Dose Resulting in 10% increase in lung weight: rats, oral, 5 or 14 consecutive days, interpolated from dose versus lung to body weight; for TI 14 days: therapeutic index: dose producing 10% lung weight increase / dose producing 50% T-cell depletion, 14 day toxicology study in rats
# Experimental: All studies were conducted in non-fasted male and female Sprague-Dawely rats (Simonsen Laboratories). Rats were housed in an AAALAC accredited facility and the research was approved by the facilities Institutional Animal Care and Use Committee (IACUC). The animals were acclimated to the laboratory for at least 5 days prior to initiation of experiments.
# (§1) The compounds listed in Table 6 were formulated as suspensions in a vehicle consisting of 0.5% carboxymethyl cellulose (Acros Organics) in purified water (pH adjusted to ˜2.2 with hydrochloric acid). The same formulation was used in the rat lymphopenia and toxicology studies described below. The concentration of each compound in suspension was verified to be within ±10% of the target concentration by HPLC-UV.
# In the toxicology studies, three male and three female rats per group were assigned to dosing groups using body weight based randomization. A control group in each study received vehicle. All animals were dosed orally by gavage on 5 or 14-consecutive days at a dose volume of 5 mL/kg/day. The animals were observed daily for any manifestations of adverse effect. Twenty-four hours after the final study dose, the rats were anesthetized with isoflurane and a terminal blood sample was taken by intra-cardiac puncture for hematology and clinical chemistry evaluation (IDEXX Laboratories, Sacramento, Calif.). The lungs with trachea were collected, weighed, and then prepared for histology by perfusion with 10% neutral buffered formalin via the trachea. The internally fixed lungs were then preserved in 10% neutral buffered formalin and submitted for histological examination (IDEXX).
# The dose of each compound resulting in a 10% increase in the lung to terminal body weight ratio was estimated for each compound by linear interpolation. The therapeutic index was estimated as the ratio of the dose producing 10% lung weight increase to the dose producing 50% T-Cell depletion.
# (§2) The dose producing a 10% increase in lung to body weight ratio was interpolated from a plot of dose versus lung to body weight. The lymphopenia response was measured 24 hours following the final dose of a 3-5 day multiple dose regimen.
# peripheral T-cell counts = assay: Lymphopenia in rats, 3-5 day multiple dose regimen; assay type: in vivo, rat; conditions: female rats, oral, 24 h after final dose of a 3-5 day multiple dose regimen
# Experimental: In rats: Female rats (Simonsen Laboratories, Gilroy Calif.) were housed in an ALAAC accredited facility and the research was approved by the facilities Institutional Animal Care and Use Committee (IACUC). The animals were acclimated to the laboratory for at least 5 days prior to initiation of experiments. Rats (n=3/compound/time-point) were dosed by oral gavage with 1 mg/kg compound formulated in a vehicle consisting of 5% DMS0/5% Tween 20 and 90% 0.1N HCL. Control rats were dosed PO with the vehicle. Whole blood was collected from isoflurane anesthetized rats via the retro-orbital sinus and terminal samples were collected by cardiac puncture into EDTA. Whole blood was incubated with mouse anti-rat CD32 (BD #550271), PE-mouse anti-rat CD45R/B220 (BD #554881), PECy5-mouse anti-rat CD4 (BD #554839), and APC-mouse anti-rat CD8a (eBioscience #17-0084) for 30 minutes on ice. Red blood cells were lysed using BD Pharm Lyse Lysing buffer (#555899) and white blood cells were analyzed with a BD FACSArray. Lymphopenia was expressed as the % of white blood cells that were CD4 or CD8 positive T cells. The overall lymphopenia response over 24 h was estimated by calculating the area under the effect curve (AUEC) using the linear trapezoidal rule.
# as §1
# Prior to the conduct of toxicology studies, the effect of three to five daily doses of each compound on peripheral T-cell counts of female rats was determined (see lymphopenia measurements in rats above). In these lymphopenia studies, blood samples were collected onto EDTA at intervals after the final study dose. The collection times were not identical for each study, however, all studies included a sample collected 24 hours after the final dose. The lymphopenia data was used as a biomarker to select equally pharmacologically active doses for the subsequent toxicology study. […] The high dose in the toxicology study represented a ≧20-fold increment over the low dose.
# as §2
# S1P1 W269L = molecular target: T1, S1P1 W269L (Homo sapiens, UniProt P21453, W269L); assay: Phosphorylated-ERK1/2 In Cell Western, S1P1 W269L mutant; assay type: cell-based
# T1 construct: expressed in transfected cells; host or cells: CHOK1
# T1 sequence (P21453 whole entry W269L): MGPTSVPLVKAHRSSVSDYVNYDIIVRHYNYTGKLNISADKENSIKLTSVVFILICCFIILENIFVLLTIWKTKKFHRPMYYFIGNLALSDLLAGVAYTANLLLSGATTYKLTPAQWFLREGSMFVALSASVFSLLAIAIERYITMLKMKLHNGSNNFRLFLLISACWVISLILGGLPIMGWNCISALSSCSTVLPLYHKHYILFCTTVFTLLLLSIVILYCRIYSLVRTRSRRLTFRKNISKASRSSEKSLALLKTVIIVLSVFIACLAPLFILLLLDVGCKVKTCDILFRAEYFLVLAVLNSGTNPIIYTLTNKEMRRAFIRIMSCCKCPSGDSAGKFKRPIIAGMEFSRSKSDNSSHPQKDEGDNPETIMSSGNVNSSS
# Experimental: CHOK1 cells were transfected using Fugene (Roche). Stably expressing mixed pools were selected with 2 mg/ml G418. Expression of functional S1P1/EDG1 receptor was confirmed by cell surface FACS with a S1P1 antibody (R&D Systems, clone 218713). Stable pools were seeded at 40,000 cells/well in a clear bottom 96-well tray, and incubated at 37° C. in 5% CO2 for 18 hrs. Cells were serum-starved in FreeStyle 293 medium (Invitrogen) for 4-6 h, then incubated for 5 min with a dose response of compound, in duplicate. Cells were fixed with 4% paraformaldehyde for 20 min, permeabilized with 0.1% Triton X-100 in PBS (4×5 min washes) and blocked for 1 h in Odyssey Blocking Buffer (LI-COR). All incubations were at room temperature. Cells were incubated for 18 h at 4° C. in Rabbit anti-Phospho-ERK1/2 (Cell Signaling #4377) and Mouse anti-ERK1/2 (Cell Signaling #9107) both diluted 1:800 in Odyssey Blocking Buffer. Plates were washed with 0.1% Tween-20 in PBS and then incubated with Odyssey Blocking Buffer containing IRDye 680-labeled goat anti-rabbit antibody (#926-32221; diluted 1/500) and IRDye 800CW-labeled goat anti-mouse antibody (#926-32210; diluted 1/1000). Plates were washed with 0.1% Tween-20 in PBS, all liquid was removed from the wells and the plates were scanned using a LICOR Odyssey scanner. […] Data was analyzed by non-linear regression using GraphPad Prism to determine the EC50 of binding. […]
# S1P1/EDG1 = S1P1/EDG1 (Homo sapiens, UniProt P21453); assay: Phosphorylated-ERK1/2 In Cell Western, wild type S1P1 in CHOK1 cells; assay type: cell-based
# Sequence of S1P1/EDG1 (P21453 whole entry): as the sequence (P21453 whole entry W269L) above, with L269W counted along it
# Experimental: CHOK1 cells were transfected using Fugene (Roche). Stably expressing mixed pools were selected with 2 mg/ml G418. Expression of functional S1P1/EDG1 receptor was confirmed by cell surface FACS with a S1P1 antibody (R&D Systems, clone 218713). Stable pools were seeded at 40,000 cells/well in a clear bottom 96-well tray, and incubated at 37° C. in 5% CO2 for 18 hrs. Cells were serum-starved in FreeStyle 293 medium (Invitrogen) for 4-6 h, then incubated for 5 min with a dose response of compound, in duplicate. Cells were fixed with 4% paraformaldehyde for 20 min, permeabilized with 0.1% Triton X-100 in PBS (4×5 min washes) and blocked for 1 h in Odyssey Blocking Buffer (LI-COR). All incubations were at room temperature. Cells were incubated for 18 h at 4° C. in Rabbit anti-Phospho-ERK1/2 (Cell Signaling #4377) and Mouse anti-ERK1/2 (Cell Signaling #9107) both diluted 1:800 in Odyssey Blocking Buffer. Plates were washed with 0.1% Tween-20 in PBS and then incubated with Odyssey Blocking Buffer containing IRDye 680-labeled goat anti-rabbit antibody (#926-32221; diluted 1/500) and IRDye 800CW-labeled goat anti-mouse antibody (#926-32210; diluted 1/1000). Plates were washed with 0.1% Tween-20 in PBS, all liquid was removed from the wells and the plates were scanned using a LICOR Odyssey scanner. […] Data was analyzed by non-linear regression using GraphPad Prism to determine the EC50 of binding.
# S1P1 R120A/E121A = molecular target: T2, S1P1 R120A/E121A (Homo sapiens, UniProt P21453, E121A/R120A); assay: Phosphorylated-ERK1/2 In Cell Western, S1P1 R120A/E121A mutant in CHOK1 cells; assay type: cell-based
# T2 construct: expressed in transfected cells; host or cells: CHOK1
# T2 sequence (P21453 whole entry R120A/E121A): as the sequence (P21453 whole entry W269L) above, with R120A, E121A, L269W counted along it
# Experimental: (§3) A. Quick-change mutagenesis with PfuTurbo DNA polymerase (Stratagene) was conducted using S1P1/pcDNA3.1 (Missouri S&T cDNA Resource Centre) as the template. Primers were as follows: […]
# (§4) PCR conditions were 15 cycles with the following parameters: 95° C. 30 sec, 58° C. 30 sec, 68° C. for 60 sec. All constructs were sequence verified.
# (§5) CHOK1 cells were transfected using Fugene (Roche). Stably expressing mixed pools were selected with 2 mg/ml G418. Expression of functional S1P1/EDG1 receptor was confirmed by cell surface FACS with a S1P1 antibody (R&D Systems, clone 218713). Stable pools were seeded at 40,000 cells/well in a clear bottom 96-well tray, and incubated at 37° C. in 5% CO2 for 18 hrs. Cells were serum-starved in FreeStyle 293 medium (Invitrogen) for 4-6 h, then incubated for 5 min with a dose response of compound, in duplicate. Cells were fixed with 4% paraformaldehyde for 20 min, permeabilized with 0.1% Triton X-100 in PBS (4×5 min washes) and blocked for 1 h in Odyssey Blocking Buffer (LI-COR). All incubations were at room temperature. Cells were incubated for 18 h at 4° C. in Rabbit anti-Phospho-ERK1/2 (Cell Signaling #4377) and Mouse anti-ERK1/2 (Cell Signaling #9107) both diluted 1:800 in Odyssey Blocking Buffer. Plates were washed with 0.1% Tween-20 in PBS and then incubated with Odyssey Blocking Buffer containing IRDye 680-labeled goat anti-rabbit antibody (#926-32221; diluted 1/500) and IRDye 800CW-labeled goat anti-mouse antibody (#926-32210; diluted 1/1000). Plates were washed with 0.1% Tween-20 in PBS, all liquid was removed from the wells and the plates were scanned using a LICOR Odyssey scanner. The phospho-ERK1/2 signal was normalized to the ERK1/2 signal. Data was analyzed by non-linear regression using GraphPad Prism to determine the EC50 of binding.
# S1P1 N101A = molecular target: T3, S1P1 N101A (Homo sapiens, UniProt P21453, N101A); assay: Phosphorylated-ERK1/2 In Cell Western, S1P1 N101A mutant in CHOK1 cells; assay type: cell-based
# T3 construct: expressed in transfected cells; host or cells: CHOK1
# T3 sequence (P21453 whole entry N101A): as the sequence (P21453 whole entry W269L) above, with N101A, L269W counted along it
# Experimental: as §3, §4, §5
SMILES,Dose Resulting in 10% increase in lung weight [1],TI 14 days [1],Dose Producing 50% lymphopenia (peripheral T-cell counts),Effect of mutation on binding of compound (in words) (S1P1 W269L),Phosphorylation of ERK1/2 by S1P1 agonist (in words) (S1P1/EDG1),Effect of mutation on binding of compound (in words) (S1P1 R120A/E121A; S1P1 R120A/E121A),"Fold change in EC50 compared to wild type S1P1 (S1P1 R120A/E121A; S1P1 variant R120A/E121A, phospho-ERK1/2)",Effect of mutation on binding of compound (in words) (S1P1 N101A; S1P1 N101A),"Fold change in EC50 compared to wild type S1P1 (S1P1 N101A; S1P1 variant N101A, phospho-ERK1/2)"
"CC(C)Oc1ccc(-c2nc(-c3cccc4c3CC[C@H]4N)no2)cc1C#N [Compound 49, (R)-5-(3-(1-amino-2,3-dihydro-1H-inden-4-yl)-1,2,4-oxadiazol-5-yl)-2-isopropoxy-benzonitrile hydrochloride]",0.2 mg/kg,2,0.10 mg/kg,–,–,–,–,–,–
"CC(C)Oc1ccc(-c2nc(-c3cccc4c3CC[C@@H]4N)no2)cc1C#N [Compound 50, (S)-5-(3-(1-amino-2,3-dihydro-1H-inden-4-yl)-1,2,4-oxadiazol-5-yl)-2-isopropoxy-benzonitrile]",2.0 mg/kg,20,0.10 mg/kg,abolishes binding,induce phosphorylation of ERK1/2,has no influence on the binding,2,reduces the binding,32
"CC(C)Oc1ccc(-c2nc(-c3cccc4c3CC[C@H]4NCCO)no2)cc1C#N [Compound 85, (R)-5-(3-(1-(2-hydroxyethylamino)-2,3-dihydro-1H-inden-4-yl)-1,2,4-oxadiazol-5-yl)-2-isopropoxybenzonitrile]",2.8 mg/kg,14,0.15 mg/kg,–,–,–,–,–,–
"CC(C)Oc1ccc(-c2nc(-c3cccc4c3CC[C@H]4NCC(=O)N(C)C)no2)cc1C#N [Compound 90, (R)-2-(4-(5-(3-cyano-4-isopropoxyphenyl)-1,2,4-oxadiazol-3-yl)-2,3-dihydro-1H-inden-1-ylamino)-N,N-dimethylacetamide hydrochloride]",5.5 mg/kg,14,0.40 mg/kg,–,–,–,–,–,–
"CC(C)Oc1ccc(-c2nc(-c3cccc4c3CC[C@@H]4NCC(=O)N(C)C)no2)cc1C#N [Compound 91, (S)-2-(4-(5-(3-cyano-4-isopropoxyphenyl)-1,2,4-oxadiazol-3-yl)-2,3-dihydro-1H-inden-1-ylamino)-N,N-dimethylacetamide]",0.3 mg/kg,1,0.30 mg/kg,–,–,–,–,–,–
